Measurements from patent US20160175318A1, “COMPOSITIONS COMPRISING ANTIBACTERIAL AGENT AND TAZOBACTAM” (WOCKHARDT LIMITED, priority 2013, published 2016).
Like-named read-outs stand apart in the source and are kept apart here. Each block holds one compound with its values, some of them ahead of it.

Assays:
Assay type in all cases: cell-based
[1] = tested on: E. coli S-112; experiment: Quantitative drug diffusion assay (disc, zone of inhibition, CLSI); parameters: key to Interpretation of zone as per CLSI recommendations: R: Resistant; I: Intermediate; S: Sensitive (Interpretation as per CLSI recommendations, 2010)
Excerpt: (§1) Activity of cefepime in combination with tazobactam and various penicillins in combination with respective ESBL inhibitors was also investigated against highly resistant ESBL strains in quantitative drug diffusion assay performed as per CLSI recommendations (Clinical and Laboratory Standards Institute (CLSI), performance Standards for Antimicrobial Susceptibility Testing, 20th Informational Supplement, M 100-S20, Volume 30, No. 1, 2010).
(§2) In a typical study, overnight grown bacterial cultures after appropriate dilution were seed inoculated in the molten, cooled agar media and plates poured. Antibiotics containing 6 mm diameter discs were place on the top of the agar surface. Zone of inhibition based observation was performed after 16-18 h of incubation at 35±2° C. in ambient air. The overall procedure was performed as per CLSI recommendations (Table 5 and 6). These assays are routinely used in determining possibility of treating a particular infection using antibiotic and/or their combinations. For example, in case of treating an infection caused by E. coli (M138) using Augmentin® [commercially available combination: Amoxicillin (500 mg)+Clavulanic acid (125 mg)], the zone inhibition values need to be in the sensitive (S) range.

[2] = tested on: E. coli M-138; experiment: as above; parameters: key to Interpretation of zone as per CLSI recommendations: R: Resistant; I: Intermediate; S: Sensitive (Interpretation as per CLSI recommendations, 2010)
Excerpt: as §1, §2

[3] = tested on: E. coli B-123; experiment: as above; parameters: key to Interpretation of zone as per CLSI recommendations: R: Resistant; I: Intermediate; S: Sensitive (Interpretation as per CLSI recommendations, 2010)
Excerpt: as §1, §2

[4] = tested on: E. coli M50; experiment: as above; parameters: key to Interpretation of zone as per CLSI recommendations: R: Resistant; I: Intermediate; S: Sensitive (Interpretation as per CLSI recommendations, 2010)
Excerpt: as §1, §2

[5] = tested on: E. coli 7MP; experiment: as above; parameters: key to Interpretation of zone as per CLSI recommendations: R: Resistant; I: Intermediate; S: Sensitive (Interpretation as per CLSI recommendations, 2010)
Excerpt: as §1, §2

[6] = tested on: E. coli B-89; experiment: as above; parameters: key to Interpretation of zone as per CLSI recommendations: R: Resistant; I: Intermediate; S: Sensitive (Interpretation as per CLSI recommendations, 2010)
Excerpt: as §1, §2

[7] = tested on: E. cloacae M-20; experiment: MIC by agar dilution (CLSI) against highly resistant ESBL strain
Procedure: (§3) The results on activity of cefepime and other cephalosporin antibacterial agents in combination with tazobactam against highly resistant ESBL strains are given Table 1. In a typical study, overnight grown bacterial cultures were diluted appropriately and inoculated on the agar media containing doubling dilutions of the antibiotic. Observation for growth or no growth was performed after 16-20 h of incubation at 35±2° C. in ambient air. The overall procedure was performed as per Clinical and Laboratory Standards Institute (CLSI) recommendations. This experimental was followed for Examples 2-4 and 6 below (Table 2-4 and 7).

[8] = tested on: E. coli M50; experiment: as above
Procedure: as §3

[9] = tested on: E. coli 7MP; experiment: as above
Procedure: as §3

[10] = tested on: E. coli B-89; experiment: as above
Procedure: as §3

[11] = tested on: E. coli B123; experiment: as above; settings: for Activity (MIC, method of Example 1), Table 7: E. coli B-123
Procedure: as §3

[12] = ESBL inhibitor 0 mcg (antibiotic alone)
[13] = Table 6, with Tazobactam 10 mcg
[14] = E. cloacae M-20, with Tazobactam 4 mcg
[15] = E. cloacae M-20, with Tazobactam 8 mcg
[16] = Enterobacter cloacae, M20, 20 h, E. cloacae M-20, Tazobactam 0 mcg (antibiotic alone), read-out: MIC
[17] = Escherichia coli, 20 h, Tazobactam 0 mcg (antibiotic alone), read-out: MIC
[18] = E. coli 7MP, with Tazobactam 4 mcg
[19] = E. coli 7MP, with Tazobactam 8 mcg
[20] = Escherichia coli, 7MP, 20 h, E. coli 7MP, Tazobactam 0 mcg (antibiotic alone), read-out: MIC
[21] = E. coli B-89, with Tazobactam 4 mcg
[22] = E. coli B-89, with Tazobactam 8 mcg
[23] = Escherichia coli, B89, 20 h, E. coli B-89, Tazobactam 0 mcg (antibiotic alone), read-out: MIC
[24] = Escherichia coli, B123, E. coli B123, Tazobactam 0 mcg (antibiotic alone), read-out: MIC
[25] = Escherichia coli, B123, E. coli B123, with Tazobactam 4 mcg, read-out: MIC
[26] = Escherichia coli, B123, E. coli B123, with Tazobactam 8 mcg, read-out: MIC
[27] = Enterobacter cloacae, M20, 20 h
[28] = Escherichia coli, M50, 20 h, Tazobactam 0 mcg (antibiotic alone)

Activity (MIC, method of Example 1), Table 7 ([7]; E. cloacae M-20, antibiotic alone): > 64 µg/mL | Activity (MIC, method of Example 1), Table 7 ([7]; E. cloacae M-20, with Clavulanic acid 4 mcg): 16 µg/mL | Activity (MIC, method of Example 1), Table 7 ([7]; E. cloacae M-20, with Clavulanic acid 8 mcg): 8 µg/mL | Activity (MIC, method of Example 1), Table 7 ([7]; E. cloacae M-20, with Sulbactam 4 mcg): 32 µg/mL | Activity (MIC, method of Example 1), Table 7 ([7]; E. cloacae M-20, with Sulbactam 8 mcg): 16 µg/mL | Activity (MIC, method of Example 1), Table 7 [7, 14]: 8 µg/mL | MIC [7, 14]: 8 µg/mL | MIC [7, 15]: 4 µg/mL | Activity (MIC, method of Example 1), Table 7 ([7]; E. cloacae M-20, with Tazobactam, (4 mcg)): 4 µg/mL | MIC [7, 16]: > 64 µg/mL | MIC [8, 17]: > 64 µg/mL | MIC ([8]; with Tazobactam 4 mcg): 2 µg/mL | MIC ([8]; with Tazobactam 8 mcg): 2 µg/mL | Activity (MIC, method of Example 1), Table 7 ([9]; E. coli 7MP, antibiotic alone): > 64 µg/mL | Activity (MIC, method of Example 1), Table 7 ([9]; E. coli 7MP, with Clavulanic acid 4 mcg): 16 µg/mL | Activity (MIC, method of Example 1), Table 7 ([9]; E. coli 7MP, with Clavulanic acid 8 mcg): 8 µg/mL | Activity (MIC, method of Example 1), Table 7 ([9]; E. coli 7MP, with Sulbactam 4 mcg): 16 µg/mL | Activity (MIC, method of Example 1), Table 7 ([9]; E. coli 7MP, with Sulbactam 8 mcg): 16 µg/mL | Activity (MIC, method of Example 1), Table 7 [9, 18]: 8 µg/mL | MIC [9, 18]: 8 µg/mL | MIC [9, 19]: 4 µg/mL | Activity (MIC, method of Example 1), Table 7 ([9]; E. coli 7MP, with Tazobactam, (4 mcg)): 4 µg/mL | MIC [9, 20]: > 64 µg/mL | MIC [10, 21]: 4 µg/mL | MIC [10, 22]: 2 µg/mL | MIC [10, 23]: > 64 µg/mL | Activity (MIC, method of Example 1), Table 7 ([11]; antibiotic alone): > 64 µg/mL | Activity (MIC, method of Example 1), Table 7 ([11]; with Clavulanic acid 4 mcg): 16 µg/mL | Activity (MIC, method of Example 1), Table 7 ([11]; with Clavulanic acid 8 mcg): 8 µg/mL | Activity (MIC, method of Example 1), Table 7 ([11]; with Sulbactam 4 mcg): 8 µg/mL | Activity (MIC, method of Example 1), Table 7 ([11]; with Sulbactam 8 mcg): 16 µg/mL | Activity (MIC, method of Example 1), Table 7 ([11]; with Tazobactam 4 mcg): 4 µg/mL | Activity (MIC, method of Example 1), Table 7 ([11]; with Tazobactam, (4 mcg)): 2 µg/mL | MIC [11, 24]: > 64 µg/mL | MIC [11, 25]: 4 µg/mL | MIC [11, 26]: 2 µg/mL
SMILES: CO/N=C(\C(=O)N[C@@H]1C(=O)N2C(C(=O)[O-])=C(C[n+]3cccc4c3CCC4)CS[C@H]12)c1csc(N)n1 [Cefpirome]
Zone of Inhibition [1, 12]: 15 mm | Interpretation of zone as per CLSI recommendations ([1]; Table 6, ESBL inhibitor 0 mcg): (I) | Interpretation of zone as per CLSI recommendations [1, 13]: (S) | Zone of Inhibition ([1]; with Tazobactam 10 mcg): 20 mm | Zone of Inhibition [2, 12]: Nil | Interpretation of zone as per CLSI recommendations ([2]; Table 6, ESBL inhibitor 0 mcg): (R) | Interpretation of zone as per CLSI recommendations [2, 13]: (S) | Zone of Inhibition ([2]; with Tazobactam 10 mcg): 21 mm | Zone of Inhibition [3, 12]: 8 mm | Interpretation of zone as per CLSI recommendations ([3]; Table 6, ESBL inhibitor 0 mcg): (R) | Interpretation of zone as per CLSI recommendations [3, 13]: (S) | Zone of Inhibition ([3]; with Tazobactam 10 mcg): 20 mm | Zone of Inhibition [4, 12]: Nil | Interpretation of zone as per CLSI recommendations ([4]; Table 6, ESBL inhibitor 0 mcg): (R) | Interpretation of zone as per CLSI recommendations [4, 13]: (S) | Zone of Inhibition ([4]; with Tazobactam 10 mcg): 22 mm | Zone of Inhibition [5, 12]: 11 mm | Interpretation of zone as per CLSI recommendations ([5]; Table 6, ESBL inhibitor 0 mcg): (R) | Interpretation of zone as per CLSI recommendations [5, 13]: (S) | Zone of Inhibition ([5]; with Tazobactam 10 mcg): 18.5 mm | Zone of Inhibition [6, 12]: Nil | Interpretation of zone as per CLSI recommendations ([6]; Table 6, ESBL inhibitor 0 mcg): (R) | Interpretation of zone as per CLSI recommendations [6, 13]: (S) | Zone of Inhibition ([6]; with Tazobactam 10 mcg): 17.5 mm

MIC [7, 14]: >64 µg/mL | MIC [7, 15]: >64 µg/mL | MIC [7, 16]: > 128 µg/mL | MIC [8, 17]: > 128 µg/mL | MIC ([8]; with Tazobactam 4 mcg): >64 µg/mL | MIC ([8]; with Tazobactam 8 mcg): >64 µg/mL | MIC [9, 18]: >64 µg/mL | MIC [9, 19]: >64 µg/mL | MIC [9, 20]: > 128 µg/mL | MIC [10, 21]: >64 µg/mL | MIC [10, 22]: >64 µg/mL | MIC [10, 23]: > 128 µg/mL | MIC [11, 24]: > 128 µg/mL | MIC [11, 25]: > 64 µg/mL | MIC [11, 26]: > 64 µg/mL
SMILES: COCC1=C(C(=O)O)N2C(=O)[C@@H](NC(=O)/C(=N\OC)c3csc(N)n3)[C@H]2SC1 [Cefpodoxime]

SMILES: CC(C)(O/N=C(\C(=O)N[C@@H]1C(=O)N2C(C(=O)[O-])=C(C[n+]3ccccc3)CS[C@H]12)c1csc(N)n1)C(=O)O [Ceftazidime]
MIC [7, 14]: >64 µg/mL | MIC [7, 15]: 64 µg/mL | MIC [7, 27]: > 128 µg/mL | MIC [8, 28]: > 128 µg/mL | MIC ([8]; with Tazobactam 4 mcg): >64 µg/mL | MIC ([8]; with Tazobactam 8 mcg): >64 µg/mL | MIC [9, 18]: >64 µg/mL | MIC [9, 19]: >64 µg/mL | MIC ([9]; Escherichia coli, 7MP, 20 h): > 128 µg/mL | MIC [10, 21]: >64 µg/mL | MIC [10, 22]: 64 µg/mL | MIC ([10]; Escherichia coli, B89, 20 h): > 128 µg/mL | MIC ([11]; Escherichia coli, B123): > 128 µg/mL | MIC [11, 25]: > 64 µg/mL | MIC [11, 26]: > 64 µg/mL

SMILES: CO/N=C(\C(=O)N[C@@H]1C(=O)N2C(C(=O)O)=C(CSc3nc(=O)c(=O)[nH]n3C)CS[C@H]12)c1csc(N)n1 [Ceftriaxone]
MIC [7, 14]: >64 µg/mL | MIC [7, 15]: >64 µg/mL | MIC [7, 27]: > 128 µg/mL | MIC [8, 28]: 128 µg/mL | MIC ([8]; with Tazobactam 8 mcg): 64 µg/mL | MIC ([9]; E. coli 7MP, Tazobactam 0 mcg (antibiotic alone)): >128 µg/mL | MIC [9, 18]: >64 µg/mL | MIC [9, 19]: >64 µg/mL | MIC ([9]; Escherichia coli, 7MP, 20 h): > 128 µg/mL | MIC ([10]; E. coli B-89, Tazobactam 0 mcg (antibiotic alone)): >128 µg/mL | MIC [10, 21]: >64 µg/mL | MIC [10, 22]: >64 µg/mL | MIC ([10]; Escherichia coli, B89, 20 h): > 128 µg/mL | MIC ([11]; E. coli B123, Tazobactam 0 mcg (antibiotic alone)): >128 µg/mL | MIC ([11]; E. coli B123, with Tazobactam 4 mcg): >64 µg/mL | MIC ([11]; E. coli B123, with Tazobactam 8 mcg): >64 µg/mL | MIC ([11]; Escherichia coli, B123): > 128 µg/mL | MIC [11, 25]: > 64 µg/mL | MIC [11, 26]: > 64 µg/mL
